In ChEMBL document CHEMBL1944600, “Synthesis of chromeno[3,4-b]indoles as Lamellarin D analogues: a novel DYRK1A inhibitor class” (Eur J Med Chem, 2012):

Key:
[1] = target: Dual specificity tyrosine-phosphorylation-regulated kinase 1A (Rattus norvegicus, UniProt Q63470); test: Inhibition of GST-tagged rat recombinant DYRK1A expressed in Escherichia coli using myelin basic protein as substrate and [gamma-33P]ATP after 30 mins by scintillation counting
[2] = target: Cyclin-dependent kinase 5/CDK5 activator 1 (Homo sapiens, UniProt Q00535); test: Inhibition of human recombinant CDK5/p25 using [gamma-33P]ATP after 30 mins by scintillation counting; format: protein-complex assay
Cyclin-dependent kinase 5/CDK5 activator 1, sequence (Q00535 whole entry): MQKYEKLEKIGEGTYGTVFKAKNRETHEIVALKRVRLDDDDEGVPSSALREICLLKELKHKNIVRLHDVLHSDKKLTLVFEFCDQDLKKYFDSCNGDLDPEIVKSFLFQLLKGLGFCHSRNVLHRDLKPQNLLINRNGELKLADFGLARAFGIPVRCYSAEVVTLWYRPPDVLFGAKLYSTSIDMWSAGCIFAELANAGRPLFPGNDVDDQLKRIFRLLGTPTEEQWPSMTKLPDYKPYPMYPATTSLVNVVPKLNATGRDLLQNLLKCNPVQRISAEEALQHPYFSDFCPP
Cyclin-dependent kinase 5/CDK5 activator 1, sequence (Q15078 whole entry, further chain): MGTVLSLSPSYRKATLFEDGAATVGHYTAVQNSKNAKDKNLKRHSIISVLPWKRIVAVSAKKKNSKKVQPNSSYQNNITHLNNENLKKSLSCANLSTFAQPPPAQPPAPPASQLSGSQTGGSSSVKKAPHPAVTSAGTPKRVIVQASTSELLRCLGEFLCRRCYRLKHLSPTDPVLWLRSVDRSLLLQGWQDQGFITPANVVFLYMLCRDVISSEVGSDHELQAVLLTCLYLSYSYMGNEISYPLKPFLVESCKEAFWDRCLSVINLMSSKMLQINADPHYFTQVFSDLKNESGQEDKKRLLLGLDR

[3] = target: Glycogen synthase kinase-3 (Sus scrofa, UniProt B2LUN4+I6LNT8); test: Inhibition of porcine brain GSK3alpha/beta using GS-1 as substrate
CCRF-CEM = test: Cytotoxicity against human CEM cells; format: functional, cell-based
[4] = target: T1, DNA topoisomerase 1 (Homo sapiens) (UniProt P11387); test: Human topoisomerase 1-mediated nicking of supercoiled plasmid pUC19 DNA at 20 uM by agarose gel electrophoresis
T1 sequence (whole entry): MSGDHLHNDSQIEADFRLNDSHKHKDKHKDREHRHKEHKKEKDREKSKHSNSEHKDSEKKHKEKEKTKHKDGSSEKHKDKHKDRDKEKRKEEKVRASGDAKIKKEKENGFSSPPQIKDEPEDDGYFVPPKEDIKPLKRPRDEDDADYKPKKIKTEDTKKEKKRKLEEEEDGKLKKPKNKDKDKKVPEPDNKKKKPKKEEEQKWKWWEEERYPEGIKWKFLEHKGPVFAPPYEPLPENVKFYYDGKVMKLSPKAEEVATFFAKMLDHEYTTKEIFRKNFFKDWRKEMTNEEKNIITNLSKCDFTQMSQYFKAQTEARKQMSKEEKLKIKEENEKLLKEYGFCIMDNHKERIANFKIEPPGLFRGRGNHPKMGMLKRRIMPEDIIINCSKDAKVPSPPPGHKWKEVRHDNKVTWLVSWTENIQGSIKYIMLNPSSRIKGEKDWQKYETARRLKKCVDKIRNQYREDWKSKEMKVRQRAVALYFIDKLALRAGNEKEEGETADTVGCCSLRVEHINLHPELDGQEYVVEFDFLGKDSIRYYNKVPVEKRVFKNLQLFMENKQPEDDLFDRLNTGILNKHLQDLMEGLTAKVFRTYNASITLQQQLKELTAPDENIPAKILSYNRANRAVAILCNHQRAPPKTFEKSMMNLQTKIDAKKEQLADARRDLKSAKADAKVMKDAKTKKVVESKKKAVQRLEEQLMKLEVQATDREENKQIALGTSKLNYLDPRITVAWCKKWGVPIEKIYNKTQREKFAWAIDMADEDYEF

[5] = target: T1, DNA topoisomerase 1 (Homo sapiens); test: Human topoisomerase 1-mediated nicking of supercoiled plasmid pUC19 DNA at 100 uM by agarose gel electrophoresis

IC50 [1]	IC50 [2]	IC50 [3]	SMILES	IC50 (CCRF-CEM)	% nicked DNA [4]	% nicked DNA [5]
1.8 µM	16 µM	> 10 µM	O=c1oc2ccc(O)cc2c2c1[nH]c1cc3c(cc12)OCO3	–	–	–
–	–	–	CC[C@@]1(O)C(=O)OCc2c1cc1n(c2=O)Cc2cc3ccccc3nc2-1 [CAMPTOTHECIN]	0.005 µM	–	–
0.5 µM	4.7 µM	0.44 µM	O=c1oc2cc(O)ccc2c2c1[nH]c1ccccc12	–	–	–
–	–	–	COc1cc(-c2c3c4cc(OC)c(O)cc4oc(=O)c3n3ccc4cc(O)c(OC)cc4c23)ccc1O [LAMELLARIN D]	15 µM	22%	21%
4.3 µM	> 10 µM	> 10 µM	O=c1oc2ccc(O)cc2c2c1[nH]c1cc(O)ccc12	–	–	–
0.21 µM	8.4 µM	2.5 µM	O=c1oc2ccc(O)cc2c2c1[nH]c1ccc(F)cc12	–	–	–
> 10 µM	> 10 µM	> 10 µM	O=c1oc2ccccc2c2c1[nH]c1ccccc12	–	–	–
0.66 µM	> 10 µM	5.9 µM	Cc1cccc2[nH]c3c(=O)oc4ccc(O)cc4c3c12	–	–	–
≥ 10 µM	≥ 10 µM	> 10 µM	O=c1oc2ccc(O)cc2c2c1[nH]c1cccc(-c3ccc(O)cc3)c12	–	–	–
3.2 µM	10 µM	10 µM	O=c1oc2cc(O)ccc2c2c1[nH]c1cc(O)ccc12	–	–	–
0.35 µM	≥ 10 µM	3.3 µM	COc1cccc2[nH]c3c(=O)oc4ccc(O)cc4c3c12	–	–	–
3.3 µM	> 10 µM	> 10 µM	Cc1ccc2c(c1)[nH]c1c(=O)oc3ccc(O)cc3c12	–	–	–
1.7 µM	> 10 µM	8.1 µM	CCCOc1cccc2[nH]c3c(=O)oc4ccc(O)cc4c3c12	–	–	–
2.1 µM	> 10 µM	>= 10 uM	O=c1oc2ccc(O)cc2c2c1[nH]c1cccc(C(F)(F)F)c12	–	–	–
> 10 µM	> 10 µM	> 10 µM	COc1cccc2oc(=O)c3[nH]c4ccccc4c3c12	–	–	–
0.3 µM	4.2 µM	0.42 µM	O=c1oc2cc(O)ccc2c2c1[nH]c1ccc(O)cc12	38.5 µM	16%	21%
> 10 µM	> 10 µM	> 10 µM	COc1ccc(-c2ccc3c(c2)[nH]c2c(=O)oc4ccc(O)cc4c23)cc1	–	–	–
0.074 µM	2.7 µM	0.38 µM	O=c1oc2ccc(O)cc2c2c1[nH]c1ccccc12	–	–	–
≥ 10 µM	≥ 10 µM	> 10 µM	O=c1oc2ccccc2c2c1[nH]c1cccc(-c3ccc(O)cc3)c12	–	–	–
≥ 10 µM	≥ 10 µM	>= 10 uM	O=c1oc2ccc(O)cc2c2c1[nH]c1ccc(C(F)(F)F)cc12	–	–	–
1.5 µM	> 10 µM	1.3 µM	O=c1oc2cc(O)c(O)cc2c2c1[nH]c1ccc(O)cc12	–	–	–
0.067 µM	0.72 µM	0.31 µM	O=c1oc2ccc(O)cc2c2c1[nH]c1ccc(O)cc12	–	–	–
